This note sets out measurements from publication PMC12428554, “Anti-HIV and Antimicrobial Activity of 7-Hydrazino-8-hydroxyquinoline-Based Aromatic Hydrazones” (International Journal of Molecular Sciences, 2025).

Converted amounts (≈) assume the structure as drawn. “And” between values parts separate entries of the source, which are not always exact repeats. Identical values can stand only once. Where only a bound is given, the exact number is not on record here.

What is called MIC is the smallest concentration in the dilution series that meets the test's criterion for growth inhibition. Broadly, the CC50 is the concentration at which the toxic effect on the cells reaches its halfway point. A lower CC50 goes with greater toxicity to the cells. For orientation: IC50 means the concentration that inhibits the measured activity by half.

Data set [1] deals with P. aeruginosa ATCC 27853. The experiment in a line: MIC by twofold serial dilution, P. aeruginosa. It counts as cell-based. The note with it: Pseudomonas aeruginosa, ATCC27853; 24 h, 37 °C; read-out: MIC (Mean ± SE) P. aeruginosa ATCC 27853. As to the method:
(§1) Candida albicans ATCC 10231, Pseudomonas aeruginosa ATCC 27853, and Staphylococcus aureus ATCC 29213 strains were obtained from the American Type Culture Collection (ATCC; Rockville, MD, USA). The subculture and inoculum preparation were performed according to CLSI M27-A3 for C. albicans on yeast extract peptone dextrose (YPD) agar (HiMedia, Mumbai, Maharashtra, India) and RPMI-1640 medium (PanEco, Moscow, Russia) with MOPS (3-(N-morpholino) propanesulfonic acid, >99.5%; PanEco, Moscow, Russia), and M7-A11 for P. aeruginosa and S. aureus on Mueller-Hinton agar (MHA; HiMedia, Mumbai, Maharashtra, India) and Mueller-Hinton broth (MHB; HiMedia, Mumbai, Maharashtra, India). The stock cell concentrations of fungus and bacteria were 1 × 10^6 and 1 × 10^8 cells/mL, respectively. A working suspension of C. albicans (5.0 × 10^2 cells/mL) was prepared by two-step dilution of the broth concentration with the RPMI-1640 medium. Assay suspensions of P. aeruginosa and S. aureus (1.0 × 10^6 cells/mL) were prepared by diluting the concentration with Mueller-Hinton broth (HiMedia, Mumbai, Maharashtra, India). Amphotericin B (Sigma-Aldrich, Burlington, MA, USA) and gentamicin (Sigma-Aldrich, Burlington, MA, USA) were used as secondary pharmaceutical standards.
(§2) The minimum inhibitory concentration (MIC) was determined by the twofold serial dilution method, according to CLSI M27-A3 [33] and M07-A11 [34], in three independent experiments with four replicates each. Amphotericin B was used as a positive control for fungus; gentamicin was used as a positive control for bacteria. Stock solutions except gentamicin were prepared in DMSO at a concentration of 6400 μg/mL. Gentanicin was solubilized in sterile water at a concentration of 1280 μg/mL. Stock solutions of the tested substances were diluted to the final concentrations in the assay medium and 100 μL of each sample was added to the wells of 96-well plates, and then 100 μL of inoculum was added. Rows 11 and 12 were left for the negative control (medium with inoculum without the drug) and sterility control. The plates were incubated for 24 h at 35 °C in the case of C. albicans and at 37 °C in the case of P. aeruginosa and S. aureus. The tested concentration for gentamicin ranged from 0.0625 to 32 μg/mL; for other compounds, it ranged from 0.125 to 64 μg/mL. The MIC value was determined using spectrophotometer. The MIC was taken to be the lowest drug concentration that caused complete inhibition of microorganism growth compared to the control. The final MIC values were reported as the means with standard error (SE). Standard errors for µg/mL values less than 0.01 were excluded; standard errors for µM values less than 0.1 were excluded (Table 3).

Data set [2] relates to C. albicans ATCC 10231. Put plainly: MIC by twofold serial dilution, C. albicans. As to conditions: Candida albicans, ATCC10231; 24 h, 35 °C; read-out: MIC (Mean ± SE) C. albicans ATCC 10231. The format is cell-based. As to the method:
as §1, §2

A short description of data set [3]: MTT cytotoxicity assay. It counts as cell-based. As to conditions: human, Huh-7.5 cells. As for the experimental part: Huh7.5 cells were grown in the DMEM/F12 (2:1) medium supplemented with 10% FBS (BioSera, Cholet, France), 2 mM L-glutamine, 100 U/mL penicillin, and 100 µg/mL streptomycin in the presence of 5% CO2 at 37 °C. Cells were re-seeded every three days at a ratio of 1:3 or 1:5. Stock solutions were diluted in DMSO (BioReagent of molecular biology grade, Sigma, St. Louis, MO, USA), and the final DMSO concentration was 1%. After 24 h (30–40% monolayer), the solutions of the studied compounds diluted at different concentrations were introduced to the culture medium. After incubation at 37 °C in 5% CO2 for 48 h, a freshly prepared solution of thiazolyl blue tetrazolium bromide at a final concentration of 0.4 mg/mL was added to each well of the plate. Incubation was performed at +37 °C for 2 h. The medium containing unreacted MTT was removed via aspiration. The formed formazan dye was dissolved in 100 µL of isopropanol added to each well of the plate. The result of the analysis was evaluated using a Tecan Spark multimode microplate reader (Tecan Group Ltd., Männedorf, Switzerland) via absorbance at 544 nm.
(In general: Tetrazolium assays rely on reduction of a dye to a coloured formazan, in cell work by metabolically active cells.)

The test system of data set [4] is S. aureus ATCC 29213. Put plainly: MIC by twofold serial dilution, S. aureus. The note with it: Staphylococcus aureus, ATCC29213, 24 h, 37 °C, read-out: MIC (Mean ± SE) S. aureus ATCC 29213. It counts as cell-based. As to the method:
as §1, §2

The target in data set [5] is T1, recombinant HIV-1 Integrase (strand transfer) (Human immunodeficiency virus type 1 group M subtype B, UniProt P04585).
T1 construct: The recombinant HIV-1 Integrase (In) was isolated from the Rosetta Escherichia coli producer strain; made in house; host or cells: Escherichia coli Rosetta
Put plainly: HIV integrase strand transfer inhibition. It counts as biochemical. As to conditions: for IC50: 100 nM integrase, 37 °C, 2 h. As for the experimental part:
The recombinant HIV-1 Integrase (In) was isolated from the Rosetta Escherichia coli producer strain and purified without the addition of a detergent as described previously. Radioactive ^32P label was introduced at the 5′-end of the oligonucleotide. Testing of the compounds was performed according to the previously published procedure. Briefly: 5 nM ^32P-labeled 21 mer DNA duplex (5′-[…]-3′ and 5′-[…]-3′) for 3′-processing reaction or 10 nM 19/21 mer DNA duplex (5′-[…]-3′ and 5′-[…]-3′) for strand transfer was incubated in 20 µL of the buffer (20 mM HEPES, pH 7.2, 7.5 mM MgCl2, 1 mM DTT) in the presence of 100 nM integrase and increasing concentrations of the inhibitor at 37 °C for 2 h. The reaction products were assayed by 20% polyacrylamide gel electrophoresis (PAGE) with 7 M urea. The result was visualized by radioautography on a Typhoon FLA 9500 PhosphorImager (GE Healthcare Technologies, Chicago, IL, USA). The counting of radioautograms was performed using QuantityOne 4.6.6 software (Bio-Rad, Hercules, CA, USA). Calculation of IC50 parameters was carried out by Prism 8.0.1 software (GraphPad Software, San-Diego, CA, USA).

For the compound `Oc1c(N/N=C/c2ccccc2)ccc2cccnc12` [Compound I, 7-(2-Benzylidenohydrazinyl)-8-hydroxyquinoline], the MIC in data set [1] was > 64 µg/mL and > 243 µM; in data set [2], 4 µg/mL and 15.2 µM; in data set [4] it was 52 µg/mL and 198 µM. The same compound came in with a CC50 at 48 h in data set [3] of 50.5 ± 2.5 µM. Further, in data set [5], the “inhibition of strand transfer, in words” value is given as “weak activity”. In data set [5], the IC50 was determined as 160 ± 50 µM.

Take `O=[N+]([O-])c1ccc(/C=N/Nc2ccc3cccnc3c2O)cc1` [II, 7-(4-Nitrobenzylidenohydrazinyl)-8-hydroxyquinoline]: the MIC in data set [1] was > 64 µg/mL and > 208 µM; in data set [2] it was 13 µM and 4 µg/mL; in data set [4] it was 14 ± 1.9 µg/mL (≈ 45.4 µM). In data set [3], this compound came in with a 50% cytotoxic concentration (CC50) at 48 h of 123 ± 13.2 µM. Also, the “inhibition of strand transfer, in words” value in data set [5] is “ineffective”. In addition, in data set [5], the IC50 was greater than 200 µM.

Turning to `O=[N+]([O-])c1cccc(/C=N/Nc2ccc3cccnc3c2O)c1` [III, 7-(3-Nitrobenzylidenohydrazinyl)-8-hydroxyquinoline], the MIC was > 64 µg/mL and > 208 µM in data set [1]; 11.3 µg/mL and 36.8 µM in data set [2]; 18 ± 4.8 µg/mL (≈ 58.4 µM) in data set [4]. The compound also displayed a CC50 at 48 h in data set [3] of 38 ± 9.1 µM. Also, in data set [5], the “inhibition of strand transfer, in words” value was “weak activity”. The IC50 in data set [5] was determined as 190 ± 60 µM.

For the compound `COc1ccc(/C=N/Nc2ccc3cccnc3c2O)cc1` [IV, 7-(4-Methoxybenzylidenohydrazinyl)-8-hydroxyquinoline], the MIC in data set [1] is > 64 µg/mL and > 218 µM; in data set [2], 8 µg/mL and 27.3 µM; in data set [4], 64 µg/mL and 218 µM. Also, it took 47 ± 3.2 µM to reach half-maximal cytotoxicity in data set [3] (CC50 at 48 h). In addition, the “inhibition of strand transfer, in words” value in data set [5] is listed as “weak activity”. The IC50 in data set [5] was 150 ± 50 µM.

As for `Oc1c(N/N=C/c2ccc(Br)c(Br)c2)ccc2cccnc12` [V, 7-(3,4-Dibromobenzylidenohydrazinyl)-8-hydroxyquinoline], the MIC was > 64 µg/mL and > 152 µM in data set [1]; 15.3 µg/mL and 36.3 µM in data set [2]; 36.3 ± 10.3 µg/mL (≈ 86.2 µM) in data set [4]. In data set [3], this compound registered a CC50 at 48 h of 120 ± 7.5 µM. The “inhibition of strand transfer, in words” value in data set [5] is given as “ineffective”. For the same compound, the IC50 in data set [5] is greater than 200 µM.

Consider `Oc1c(N/N=C/c2ccc(F)cc2)ccc2cccnc12` [VI, 7-(4-Fluorobenzylidenohydrazinyl)-8-hydroxyquinoline], for which the MIC in data set [1] is > 64 µg/mL and > 228 µM; in data set [2], 3.8 µg/mL and 13.6 µM; in data set [4], ≥ 64 µg/mL and ≥ 228 µM. The CC50 at 48 h in data set [3] amounted to 45.5 ± 3.6 µM. In data set [5], the IC50 is ~40 µM and 40 µM.
